Here are results for eleven compounds from PubChem BioAssay AID246 (DTP/NCI, 2004).

This assay deals with BDF1 mice, P1081 chloroleukemia ip, survival T/C. Briefly: NCI In Vivo Anticancer Drug Screen. Data for tumor model P1081 Chloroleukemia (intraperitoneal) in B6D2F1 (BDF1) mice. Conditions: endpoint: mean survival time, higher = longer survival. As for the experimental part: The antitumor activity of compounds was measured in mice bearing transplantable tumors. Survival or tumor size were measured and the results are expressed as the measurement made in the treated group (T) divided by the measurement made in the vehicle treated control group (C). The tumor model used in this assay is P1081 Chloroleukemia (intraperitoneal) in B6D2F1 (BDF1) mice

Setting [1] is: dose: 6.25 mg/kg/injection, schedule: Q01DX Z (ip), vehicle: carboxymethylcellulose (CMC).
[2] abbreviates: dose: 125.0 mg/kg/injection, schedule: Q01DX010 (ip), vehicle: saline.
[3] abbreviates: dose: 16.0 mg/kg/injection, schedule: Q01DX010 (ip), vehicle: saline.
[4] abbreviates: dose: 3.0 mg/kg/injection, schedule: Q01DX010 (ip), vehicle: saline.
Setting [5] is: dose: 6.0 mg/kg/injection, schedule: Q01DX010 (ip), vehicle: saline.
The mark [6] stands for this setting: dose: 12.0 mg/kg/injection, schedule: Q01DX010 (ip), vehicle: saline.
[7] abbreviates: dose: 25.0 mg/kg/injection, schedule: Q01DX010 (ip), vehicle: saline.
Setting [8] is: dose: 50.0 mg/kg/injection, schedule: Q01DX010 (ip), vehicle: saline.
[9] abbreviates: dose: 250.0 mg/kg/injection, schedule: Q01DX Z (ip), vehicle: saline.
The mark [10] stands for this setting: dose: 500.0 mg/kg/injection, schedule: Q01DX Z (ip), vehicle: saline.

Values joined by “and” are separate entries in the source; they are usually repeats but may differ in a detail not shown here. Identical values can stand only once. Toxic doses and inconclusive results are not listed.

Turning to `CN(C)c1ccc(/C=C/c2ccnc3ccccc23)cc1`, the T/C is, setting by setting: (dose: 1.56 mg/kg/injection, schedule: Q01DX Z (ip), vehicle: water) 100 % of control; (dose: 3.12 mg/kg/injection, schedule: Q01DX Z (ip), vehicle: water) 94 % of control; (dose: 5.0 mg/kg/injection, schedule: Q01DX010 (ip), vehicle: saline) 111 % of control and 100 % of control; under setting [1], 110 % of control; (dose: 6.25 mg/kg/injection, schedule: Q01DX Z (ip), vehicle: water) 101 % of control; (dose: 10.0 mg/kg/injection, schedule: Q01DX010 (ip), vehicle: saline) 110 % of control and 100 % of control. The T/C was 115 % of control (dose: 12.5 mg/kg/injection, schedule: Q01DX Z (ip), vehicle: carboxymethylcellulose (CMC)); 107 % of control (dose: 12.5 mg/kg/injection, schedule: Q01DX Z (ip), vehicle: water); 111 % of control and 100 % of control (dose: 20.0 mg/kg/injection, schedule: Q01DX010 (ip), vehicle: saline); 102 % of control (dose: 25.0 mg/kg/injection, schedule: Q01DX Z (ip), vehicle: carboxymethylcellulose (CMC)); 111 % of control and 95 % of control (dose: 40.0 mg/kg/injection, schedule: Q01DX010 (ip), vehicle: saline); 119 % of control and 97 % of control (dose: 50.0 mg/kg/injection, schedule: Q01DX Z (ip), vehicle: carboxymethylcellulose (CMC)). Besides, the T/C (dose: 100.0 mg/kg/injection, schedule: Q01DX Z (ip), vehicle: carboxymethylcellulose (CMC)) was 104 % of control.

For `CCCCNc1ncnc2c1cnn2C`, the T/C (dose: 16.0 mg/kg/injection, schedule: Q01DX Z (ip), vehicle: carboxymethylcellulose (CMC)) is 101 % of control; the T/C (dose: 31.0 mg/kg/injection, schedule: Q01DX Z (ip), vehicle: carboxymethylcellulose (CMC)) was 117 % of control; the T/C (dose: 31.25 mg/kg/injection, schedule: Q01DX010 (ip), vehicle: saline) is 95 % of control and 100 % of control; the T/C (dose: 62.5 mg/kg/injection, schedule: Q01DX010 (ip), vehicle: saline) is 95 % of control and 100 % of control; the T/C (dose: 62.5 mg/kg/injection, schedule: Q01DX Z (ip), vehicle: carboxymethylcellulose (CMC)) was 113 % of control; the T/C under setting [2] is 90 % of control and 105 % of control.

Regarding `Nc1nc2n[nH]nc2c(=O)[nH]1`, the T/C runs as follows: (dose: 50.0 mg/kg/injection, schedule: Q01DX Z (ip), vehicle: other) 175 % of control; (dose: 100.0 mg/kg/injection, schedule: Q01DX Z (ip), vehicle: other) 183 % of control.

For `O=C(Nc1ccc(C2=NCCN2)cc1)c1cccc(C(=O)Nc2ccc(C3=NCCN3)cc2)c1`, the T/C reads like this: (dose: 2.35 mg/kg/injection, schedule: Q01DX Z (ip), vehicle: water) 106 % of control; (dose: 4.7 mg/kg/injection, schedule: Q01DX Z (ip), vehicle: water) 96 % of control; (dose: 9.4 mg/kg/injection, schedule: Q01DX Z (ip), vehicle: carboxymethylcellulose (CMC)) 152 % of control; under setting [3], 300 % of control and 333 % of control; (dose: 18.8 mg/kg/injection, schedule: Q01DX Z (ip), vehicle: carboxymethylcellulose (CMC)) 175 % of control; (dose: 32.0 mg/kg/injection, schedule: Q01DX010 (ip), vehicle: saline) 300 % of control and 333 % of control. In addition, the T/C reads like this: (dose: 37.5 mg/kg/injection, schedule: Q01DX Z (ip), vehicle: carboxymethylcellulose (CMC)) 206 % of control; (dose: 64.0 mg/kg/injection, schedule: Q01DX010 (ip), vehicle: saline) 294 % of control and 300 % of control; (dose: 75.0 mg/kg/injection, schedule: Q01DX Z (ip), vehicle: carboxymethylcellulose (CMC)) 209 % of control; (dose: 128.0 mg/kg/injection, schedule: Q01DX010 (ip), vehicle: saline) 200 % of control; (dose: 150.0 mg/kg/injection, schedule: Q01DX Z (ip), vehicle: water) 100 % of control.

`CN1CC[C@]23c4c5ccc(O)c4O[C@H]2C(=O)CC[C@H]3[C@H]1C5`: the T/C reads like this: (dose: 2.0 mg/kg/injection, schedule: Q01DX010 (ip), vehicle: saline) 105 % of control; (dose: 4.0 mg/kg/injection, schedule: Q01DX010 (ip), vehicle: saline) 90 % of control and 100 % of control; (dose: 8.0 mg/kg/injection, schedule: Q01DX010 (ip), vehicle: saline) 90 % of control and 105 % of control; under setting [3], 90 % of control and 100 % of control.

For `N=C(N)c1ccc(Nc2ccc(C(=N)N)cc2)cc1`, the T/C is 95 % of control (dose: 0.8 mg/kg/injection, schedule: Q01DX Z (ip), vehicle: methylcellulose (MC)); 107 % of control (dose: 1.6 mg/kg/injection, schedule: Q01DX Z (ip), vehicle: methylcellulose (MC)); 111 % of control under setting [4]; 96 % of control and 103 % of control (dose: 3.1 mg/kg/injection, schedule: Q01DX Z (ip), vehicle: methylcellulose (MC)); 100 % of control under setting [5]; 99 % of control (dose: 6.3 mg/kg/injection, schedule: Q01DX Z (ip), vehicle: methylcellulose (MC)). Also, the T/C was 100 % of control under setting [6] and 98 % of control (dose: 12.5 mg/kg/injection, schedule: Q01DX Z (ip), vehicle: methylcellulose (MC)).

`CS(=O)(=O)OCC(O)C(O)C(O)C(O)COS(C)(=O)=O` (stereo unspecified): the T/C reads like this: under setting [7], 110 % of control; under setting [8], 110 % of control and 100 % of control; (dose: 100.0 mg/kg/injection, schedule: Q01DX010 (ip), vehicle: saline) 110 % of control and 105 % of control; (dose: 200.0 mg/kg/injection, schedule: Q01DX010 (ip), vehicle: saline) 111 % of control and 120 % of control; (dose: 400.0 mg/kg/injection, schedule: Q01DX010 (ip), vehicle: saline) 111 % of control.

For the compound `CS(=O)(=O)OCCCCOS(C)(=O)=O`, the T/C was 89 % of control (dose: 0.78 mg/kg/injection, schedule: Q01DX Z (ip), vehicle: methylcellulose (MC)); 110 % of control (dose: 6.25 mg/kg/injection, schedule: Q01DX010 (ip), vehicle: saline); 86 % of control and 100 % of control (dose: 12.5 mg/kg/injection, schedule: Q01DX010 (ip), vehicle: saline); 86 % of control and 100 % of control under setting [7]; 95 % of control (dose: 25.0 mg/kg/injection, schedule: Q01DX Z (ip), vehicle: methylcellulose (MC)); 90 % of control and 100 % of control under setting [8]. For the same compound, the T/C (dose: 50.0 mg/kg/injection, schedule: Q01DX Z (ip), vehicle: methylcellulose (MC)) is 92 % of control.

Consider `Nc1ncnc2[nH]ncc12`, for which the T/C was 94 % of control (dose: 0.78 mg/kg/injection, schedule: Q01DX Z (ip), vehicle: carboxymethylcellulose (CMC)); 111 % of control (dose: 1.5 mg/kg/injection, schedule: Q01DX010 (ip), vehicle: saline); 103 % of control (dose: 1.56 mg/kg/injection, schedule: Q01DX Z (ip), vehicle: carboxymethylcellulose (CMC)); 116 % of control and 100 % of control under setting [4]; 112 % of control (dose: 3.12 mg/kg/injection, schedule: Q01DX Z (ip), vehicle: carboxymethylcellulose (CMC)); 111 % of control and 105 % of control under setting [5]. The T/C is 94 % of control under setting [1]; 88 % of control and 105 % of control under setting [6].

On to `CCOC(N)=O`, for which the T/C is 110 % of control and 100 % of control under setting [2]; 95 % of control and 102 % of control (dose: 125.0 mg/kg/injection, schedule: Q01DX Z (ip), vehicle: saline); 90 % of control and 100 % of control (dose: 250.0 mg/kg/injection, schedule: Q01DX010 (ip), vehicle: saline); 100 % of control and 101 % of control under setting [9]; 90 % of control and 100 % of control (dose: 500.0 mg/kg/injection, schedule: Q01DX010 (ip), vehicle: saline); 92 % of control under setting [10].

In the case of `C[C@H](N)C(=O)N[C@@H]1[C@H]2C(=C(O)C[C@@H](O)[C@@H]2O)C(=O)O[C@@H]1C`, the T/C (dose: 93.8 mg/kg/injection, schedule: Q01DX Z (ip), vehicle: saline) is 124 % of control; the T/C (dose: 187.5 mg/kg/injection, schedule: Q01DX Z (ip), vehicle: saline) was 150 % of control; the T/C under setting [9] is 161 % of control; the T/C (dose: 375.0 mg/kg/injection, schedule: Q01DX Z (ip), vehicle: saline) was 175 % of control; the T/C under setting [10] was 153 % of control; the T/C (dose: 1000.0 mg/kg/injection, schedule: Q01DX Z (ip), vehicle: saline) is 119 % of control.
